Drawing on PubChem BioAssay AID288 (DTP/NCI, 2004), this text covers T/C for 16 compounds.

Molecules are shown by their SMILES. Values joined by “and” are separate entries in the source; they are usually repeats but may differ in a detail not shown here. Equal entries are not always repeated. Inconclusive results are not listed.

This test deals with BDF1 mice, M5076 sarcoma s.c., survival/tumor T/C. Kind of test: NCI In Vivo Anticancer Drug Screen. Data for tumor model Sarcoma M5076 (subcutaneous) in B6D2F1 (BDF1) mice. The method, then:
The antitumor activity of compounds was measured in mice bearing transplantable tumors. Survival or tumor size were measured and the results are expressed as the measurement made in the treated group (T) divided by the measurement made in the vehicle treated control group (C). The tumor model used in this assay is Sarcoma M5076 (subcutaneous) in B6D2F1 (BDF1) mice

Where [1] appears, read: endpoint: median survival time, dose: 50.0 mg/kg/injection, schedule: Q01DX009 (ip), vehicle: saline with Tween-80, higher = longer survival.
The mark [2] stands for this setting: endpoint: median survival time, dose: 100.0 mg/kg/injection, schedule: Q01DX009 (ip), vehicle: saline with Tween-80, higher = longer survival.
The mark [3] stands for this setting: endpoint: median survival time, dose: 200.0 mg/kg/injection, schedule: Q01DX009 (ip), vehicle: saline with Tween-80, higher = longer survival.
Setting [4] is: endpoint: median tumor weight (est.), dose: 50.0 mg/kg/injection, schedule: Q01DX009 (ip), vehicle: saline with Tween-80, higher = larger tumour.
The mark [5] stands for this setting: endpoint: median tumor weight (est.), dose: 100.0 mg/kg/injection, schedule: Q01DX009 (ip), vehicle: saline with Tween-80, higher = larger tumour.
Where [6] appears, read: endpoint: median tumor weight (est.), dose: 200.0 mg/kg/injection, schedule: Q01DX009 (ip), vehicle: saline with Tween-80, higher = larger tumour.
[7] abbreviates: endpoint: mean tumor weight, dose: 37.5 mg/kg/injection, schedule: Q02DX011 (ip), vehicle: saline, higher = larger tumour.
Where [8] appears, read: endpoint: median survival time, dose: 50.0 mg/kg/injection, schedule: Q01DX009 (ip), vehicle: saline, higher = longer survival.

Regarding `O=C(O)CCCc1ccc(N(CCCl)CCCl)cc1`, the T/C by setting is: (endpoint: median survival time, dose: 1.5 mg/kg/injection, schedule: Q02DX030 (ip), vehicle: saline with Tween-80, higher = longer survival) 158 % of control; (endpoint: median survival time, dose: 3.0 mg/kg/injection, schedule: Q02DX030 (ip), vehicle: saline with Tween-80, higher = longer survival) 194 % of control; (endpoint: median survival time, dose: 3.0 mg/kg/injection, schedule: Q04DX006 (ip), vehicle: saline with Tween-80, higher = longer survival) 100 % of control; (endpoint: median survival time, dose: 6.0 mg/kg/injection, schedule: Q04DX006 (ip), vehicle: saline with Tween-80, higher = longer survival) 117 % of control; (endpoint: median survival time, dose: 12.0 mg/kg/injection, schedule: Q04DX006 (ip), vehicle: saline with Tween-80, higher = longer survival) 124 % of control.

With `CNc1nc(N(C)C)nc(N(C)C)n1`, the T/C was 87 % of control (endpoint: median tumor weight (est.), dose: 15.0 mg/kg/injection, schedule: Q02DX011 (ip), vehicle: water, higher = larger tumour); 85 % of control (endpoint: median tumor weight (est.), dose: 30.0 mg/kg/injection, schedule: Q02DX011 (ip), vehicle: water, higher = larger tumour); 43 % of control (endpoint: median tumor weight (est.), dose: 60.0 mg/kg/injection, schedule: Q02DX011 (ip), vehicle: water, higher = larger tumour); 13 % of control (endpoint: median tumor weight (est.), dose: 120.0 mg/kg/injection, schedule: Q02DX011 (ip), vehicle: water, higher = larger tumour).

`COCC(O)Cn1ccnc1[N+](=O)[O-]` (configuration not stated): the T/C reads like this: (endpoint: median survival time, dose: 600.0 mg/kg/injection, schedule: Q04DX003 (ip), vehicle: saline, higher = longer survival) 105 % of control and 106 % of control; (endpoint: median survival time, dose: 668.0 mg/kg/injection, schedule: Q07DX002 (ip), vehicle: saline, higher = longer survival) 97 % of control; (endpoint: median survival time, dose: 1000.0 mg/kg/injection, schedule: Q04DX003 (ip), vehicle: saline, higher = longer survival) 102 % of control; (endpoint: median survival time, dose: 1000.0 mg/kg/injection, schedule: Q07DX002 (ip), vehicle: saline, higher = longer survival) 119 % of control.

Turning to `Cc1cc(-c2ccc(NC(=O)c3cccc([N+](=O)[O-])c3)c(C)c2)ccc1NC(=O)c1cccc([N+](=O)[O-])c1`, the T/C under setting [1] was 107 % of control; the T/C under setting [2] was 102 % of control; the T/C under setting [3] is 102 % of control; the T/C under setting [4] was 90 % of control; the T/C under setting [5] was 83 % of control; the T/C under setting [6] was 71 % of control.

On to `Nc1nncs1`, for which the T/C (endpoint: mean tumor weight, dose: 18.8 mg/kg/injection, schedule: Q02DX011 (ip), vehicle: saline, higher = larger tumour) is 43 % of control; the T/C under setting [7] was 3 % of control; the T/C (endpoint: median survival time, dose: 6.25 mg/kg/injection, schedule: Q01DX009 (ip), vehicle: saline, higher = longer survival) is 103 % of control; the T/C (endpoint: median survival time, dose: 12.5 mg/kg/injection, schedule: Q01DX009 (ip), vehicle: saline, higher = longer survival) is 111 % of control; the T/C (endpoint: median survival time, dose: 25.0 mg/kg/injection, schedule: Q01DX009 (ip), vehicle: saline, higher = longer survival) was 121 % of control; the T/C under setting [8] was 122 % of control. Also, the T/C is, setting by setting: (endpoint: median tumor weight (est.), dose: 6.25 mg/kg/injection, schedule: Q01DX009 (ip), vehicle: saline, higher = larger tumour) 75 % of control; (endpoint: median tumor weight (est.), dose: 12.5 mg/kg/injection, schedule: Q01DX009 (ip), vehicle: saline, higher = larger tumour) 53 % of control; (endpoint: median tumor weight (est.), dose: 18.8 mg/kg/injection, schedule: Q02DX011 (ip), vehicle: saline, higher = larger tumour) 47 % of control; (endpoint: median tumor weight (est.), dose: 25.0 mg/kg/injection, schedule: Q01DX009 (ip), vehicle: saline, higher = larger tumour) 22 % of control.

For `Cc1ccc(SC(F)(F)C(F)C(F)(F)F)cc1` (configuration not stated), the T/C was 98 % of control under setting [1], 112 % of control under setting [2] and 100 % of control under setting [3].

`NCCNCC(O)CO` (configuration not stated): the T/C was 90 % of control under setting [8]; 112 % of control (endpoint: median survival time, dose: 100.0 mg/kg/injection, schedule: Q01DX009 (ip), vehicle: saline, higher = longer survival); 105 % of control (endpoint: median survival time, dose: 200.0 mg/kg/injection, schedule: Q01DX009 (ip), vehicle: saline, higher = longer survival); 76 % of control (endpoint: median tumor weight (est.), dose: 100.0 mg/kg/injection, schedule: Q01DX009 (ip), vehicle: saline, higher = larger tumour); 115 % of control (endpoint: median tumor weight (est.), dose: 200.0 mg/kg/injection, schedule: Q01DX009 (ip), vehicle: saline, higher = larger tumour).

Regarding `CCc1ccc(NC(=O)/C=C\C(=O)O)cc1`, the T/C runs as follows: under setting [1], 86 % of control; under setting [2], 105 % of control; under setting [3], 91 % of control; under setting [4], 112 % of control; under setting [5], 85 % of control; under setting [6], 106 % of control.

`CO[C@H](C(=O)[C@@H](O)[C@@H](C)O)[C@@H]1Cc2cc3cc(OC4CC(OC5CC(O)C(O)C(C)O5)C(O)C(C)O4)c(C)c(O)c3c(O)c2C(=O)[C@H]1OC1CC(OC2CC(OC3CC(C)(O)C(O)C(C)O3)C(O)C(C)O2)C(O)C(C)O1` (some centres not stated): the T/C runs as follows: (endpoint: mean tumor weight, dose: 1.25 micrograms/kg/injection, schedule: Q02DX011 (ip), vehicle: water, higher = larger tumour) 151 % of control; (endpoint: mean tumor weight, dose: 5.0 micrograms/kg/injection, schedule: Q02DX011 (ip), vehicle: water, higher = larger tumour) 168 % of control; (endpoint: median tumor weight (est.), dose: 0.01 mg/kg/injection, schedule: Q02DX011 (ip), vehicle: water, higher = larger tumour) 99 % of control; (endpoint: median tumor weight (est.), dose: 0.05 mg/kg/injection, schedule: Q02DX011 (ip), vehicle: water, higher = larger tumour) 154 % of control.

For the compound `CCCCCCCCCCCCCCCc1ccc(O)cc1O`, the T/C reads like this: (endpoint: median survival time, dose: 25.0 mg/kg/injection, schedule: Q02DX030 (ip), vehicle: saline with Tween-80, higher = longer survival) 119 % of control; (endpoint: median survival time, dose: 50.0 mg/kg/injection, schedule: Q02DX030 (ip), vehicle: saline with Tween-80, higher = longer survival) 111 % of control.

`CC1(C)OC(C)(C)c2c1nnc(-c1ccccc1)[n+]2[O-]`: the T/C under setting [1] was 93 % of control; the T/C under setting [2] was 105 % of control; the T/C under setting [3] was 103 % of control; the T/C under setting [5] was 84 % of control; the T/C under setting [6] is 60 % of control.

As for `Cc1ccc(C(=O)N=Nc2c(Cl)c(O)c3ccccc3c2O)cc1`, the T/C is, setting by setting: (endpoint: median survival time, dose: 12.5 mg/kg/injection, schedule: Q01DX009 (ip), vehicle: saline with Tween-80, higher = longer survival) 113 % of control; (endpoint: median survival time, dose: 25.0 mg/kg/injection, schedule: Q01DX009 (ip), vehicle: saline with Tween-80, higher = longer survival) 110 % of control; under setting [1], 89 % of control; (endpoint: median tumor weight (est.), dose: 12.5 mg/kg/injection, schedule: Q01DX009 (ip), vehicle: saline with Tween-80, higher = larger tumour) 62 % of control; (endpoint: median tumor weight (est.), dose: 25.0 mg/kg/injection, schedule: Q01DX009 (ip), vehicle: saline with Tween-80, higher = larger tumour) 120 % of control; under setting [4], 80 % of control. Also, the T/C under setting [5] is 88 % of control.

As to `O=c1[nH]c(=O)n(C2CC(O)C(CO)O2)cc1C(F)(F)F` (configuration not stated), the T/C under setting [7] was 87 % of control; the T/C (endpoint: mean tumor weight, dose: 75.0 mg/kg/injection, schedule: Q02DX011 (ip), vehicle: saline, higher = larger tumour) is 24 % of control; the T/C (endpoint: mean tumor weight, dose: 150.0 mg/kg/injection, schedule: Q02DX011 (ip), vehicle: saline, higher = larger tumour) is 6 % of control; the T/C (endpoint: median tumor weight (est.), dose: 37.5 mg/kg/injection, schedule: Q02DX011 (ip), vehicle: saline, higher = larger tumour) was 70 % of control and 90 % of control; the T/C (endpoint: median tumor weight (est.), dose: 150.0 mg/kg/injection, schedule: Q02DX011 (ip), vehicle: saline, higher = larger tumour) was 4 % of control.

As to `CC1(C)OC(C)(C)c2c1nnc(-c1ccccc1[N+](=O)[O-])[n+]2[O-]`, the T/C runs as follows: under setting [1], 108 % of control; under setting [2], 99 % of control; under setting [3], 103 % of control; under setting [4], 70 % of control; under setting [5], 110 % of control; under setting [6], 67 % of control.

Regarding `CC[C@](O)(C(=O)O)c1cc2n(c(=O)c1CO)Cc1cc3ccccc3nc1-2`, the T/C is 95 % of control (endpoint: mean tumor weight, dose: 1.13 mg/kg/injection, schedule: Q02DX011 (ip), vehicle: saline, higher = larger tumour); 61 % of control (endpoint: mean tumor weight, dose: 2.25 mg/kg/injection, schedule: Q02DX011 (ip), vehicle: saline, higher = larger tumour); 25 % of control (endpoint: mean tumor weight, dose: 4.5 mg/kg/injection, schedule: Q02DX011 (ip), vehicle: saline, higher = larger tumour); 97 % of control (endpoint: median tumor weight (est.), dose: 1.13 mg/kg/injection, schedule: Q02DX011 (ip), vehicle: saline, higher = larger tumour); 96 % of control (endpoint: median tumor weight (est.), dose: 2.25 mg/kg/injection, schedule: Q02DX011 (ip), vehicle: saline, higher = larger tumour); 44 % of control (endpoint: median tumor weight (est.), dose: 4.5 mg/kg/injection, schedule: Q02DX011 (ip), vehicle: saline, higher = larger tumour).

Take `c1cc2n(n1)CCN2`: the T/C is 122 % of control (endpoint: mean tumor weight, dose: 6.25 mg/kg/injection, schedule: Q02DX011 (ip), vehicle: saline, higher = larger tumour); 85 % of control (endpoint: mean tumor weight, dose: 12.5 mg/kg/injection, schedule: Q02DX011 (ip), vehicle: saline, higher = larger tumour); 103 % of control (endpoint: mean tumor weight, dose: 25.0 mg/kg/injection, schedule: Q02DX011 (ip), vehicle: saline, higher = larger tumour); 161 % of control (endpoint: median tumor weight (est.), dose: 6.25 mg/kg/injection, schedule: Q02DX011 (ip), vehicle: saline, higher = larger tumour).
